From the NIST ThermoML archive (doi:10.1016/j.jct.2012.08.010)

Test: refractive index (Na D-line) (dimensionless); φn = volume fraction of the nth substance listed
Conditions: 101 kPa, Liquid, Standard Abbe refractometry

C=C[Si]1(C)O[Si](C)(C=C)O[Si](C)(C=C)O[Si](C)(C=C)O1 (stereo not given) [2,4,6,8-tetramethyl-2,4,6,8-tetravinylcycloterasiloxane] + Cc1ccccc1C
Conditions	refractive index
288.15 K, φ1 = 0.1323	1.49868
288.15 K, φ1 = 0.2522	1.49036
288.15 K, φ1 = 0.3383	1.4844
288.15 K, φ1 = 0.4201	1.47866
288.15 K, φ1 = 0.4909	1.47364
288.15 K, φ1 = 0.5559	1.46898
288.15 K, φ1 = 0.6028	1.4657
288.15 K, φ1 = 0.6571	1.46179
288.15 K, φ1 = 0.7017	1.45858
288.15 K, φ1 = 0.7422	1.4556
288.15 K, φ1 = 0.7787	1.45298
288.15 K, φ1 = 0.8113	1.45065
288.15 K, φ1 = 0.842	1.44839
288.15 K, φ1 = 0.8679	1.44648
288.15 K, φ1 = 0.8958	1.44445
288.15 K, φ1 = 0.9198	1.44269
288.15 K, φ1 = 0.942	1.44102
288.15 K, φ1 = 0.9794	1.43827
288.15 K, φ1 = 1	1.43674
298.15 K, φ1 = 0.1324	1.49359
298.15 K, φ1 = 0.2524	1.48535
298.15 K, φ1 = 0.3385	1.47939
298.15 K, φ1 = 0.4203	1.4737
298.15 K, φ1 = 0.4911	1.46872
298.15 K, φ1 = 0.5561	1.46412
298.15 K, φ1 = 0.603	1.46081
298.15 K, φ1 = 0.6573	1.45693
298.15 K, φ1 = 0.7019	1.45375
298.15 K, φ1 = 0.7423	1.45081
298.15 K, φ1 = 0.7788	1.44819
298.15 K, φ1 = 0.8114	1.44585
298.15 K, φ1 = 0.8421	1.4436
298.15 K, φ1 = 0.868	1.44172
298.15 K, φ1 = 0.8958	1.43977
298.15 K, φ1 = 0.9199	1.43795
298.15 K, φ1 = 0.9421	1.4363
298.15 K, φ1 = 0.9794	1.43354
298.15 K, φ1 = 1	1.43202
308.15 K, φ1 = 0.1325	1.48836
308.15 K, φ1 = 0.2526	1.48017
308.15 K, φ1 = 0.3387	1.47425
308.15 K, φ1 = 0.4205	1.46859
308.15 K, φ1 = 0.4913	1.46366
308.15 K, φ1 = 0.5563	1.45909
308.15 K, φ1 = 0.6032	1.45581
308.15 K, φ1 = 0.6575	1.45196
308.15 K, φ1 = 0.7021	1.44881
308.15 K, φ1 = 0.7425	1.4459
308.15 K, φ1 = 0.779	1.44332
308.15 K, φ1 = 0.8116	1.441
308.15 K, φ1 = 0.8422	1.43878
308.15 K, φ1 = 0.8681	1.43691
308.15 K, φ1 = 0.8959	1.43489
308.15 K, φ1 = 0.9199	1.43317
308.15 K, φ1 = 0.9421	1.43154
308.15 K, φ1 = 0.9794	1.42881
308.15 K, φ1 = 1	1.4273
318.15 K, φ1 = 0.1326	1.48315
318.15 K, φ1 = 0.2527	1.47503
318.15 K, φ1 = 0.3389	1.46915
318.15 K, φ1 = 0.4207	1.46354
318.15 K, φ1 = 0.4915	1.45862
318.15 K, φ1 = 0.5565	1.45412
318.15 K, φ1 = 0.6034	1.45086
318.15 K, φ1 = 0.6577	1.44704
318.15 K, φ1 = 0.7022	1.44393
318.15 K, φ1 = 0.7426	1.44105
318.15 K, φ1 = 0.7791	1.43846
318.15 K, φ1 = 0.8117	1.4362
318.15 K, φ1 = 0.8423	1.43396
318.15 K, φ1 = 0.8682	1.43215
318.15 K, φ1 = 0.896	1.43012
318.15 K, φ1 = 0.92	1.4284
318.15 K, φ1 = 0.9421	1.42678
318.15 K, φ1 = 0.9794	1.42407
318.15 K, φ1 = 1	1.42257
328.15 K, φ1 = 0.1326	1.4779
328.15 K, φ1 = 0.2528	1.46957
328.15 K, φ1 = 0.339	1.46397
328.15 K, φ1 = 0.4208	1.45836
328.15 K, φ1 = 0.4916	1.45349
328.15 K, φ1 = 0.5567	1.44897
328.15 K, φ1 = 0.6035	1.44567
328.15 K, φ1 = 0.6578	1.44199
328.15 K, φ1 = 0.7023	1.43887
328.15 K, φ1 = 0.7427	1.43597
328.15 K, φ1 = 0.7792	1.43343
328.15 K, φ1 = 0.8118	1.43123
328.15 K, φ1 = 0.8423	1.42902
328.15 K, φ1 = 0.8683	1.42718
328.15 K, φ1 = 0.896	1.42526
328.15 K, φ1 = 0.92	1.42355
328.15 K, φ1 = 0.9422	1.42195
328.15 K, φ1 = 0.9794	1.41933
328.15 K, φ1 = 1	1.41785
